Test results from patent US20230295113A1, “NLRP3 MODULATORS” (ZOMAGEN BIOSCIENCES LTD, priority 2022, published 2023).

system: IL-1b; assay: Human Monocyte IL-1b Assay; format: cell-based; conditions: Homo sapiens, Monocyte, fresh human whole blood; compound 0.5 h, 100 ng/mL LPS 3.5 h at 37° C., 5 mM ATP 45 min; IL-1b in supernatant by ELISA
Method: Example 46: Human Monocyte IL-1b Assay
Serially diluted testing compounds were incubated with […] of fresh human whole blood for 0.5 hours. Cells were primed with 100 ng/mL lipopolysaccharide (LPS) for 3.5 hours at 37° C. followed by stimulation with 5 mM ATP for an additional 45 minutes. The concentration of IL-1b concentration in the supernatant was determined with commercially available ELISA kits. Negative controls are wells without stimulation, while positive controls are wells with stimulation but only DMSO without compounds added. After background subtraction, compound treatment wells were then normalized to the positive controls for IC50 calculations.

Row | IC50 | SMILES
1 | < 500 nM | CN1CCC[C@@H]([C@@H](O)c2nnc(-c3ccc(C(F)(F)F)cc3O)c3c2CCC3)C1 (racemic) [Compound 43A, 2-(4-((R)-hydroxy((R)-1-methylpiperidin-3-yl)methyl)-6,7-dihydro-5H-cyclopenta[d]pyridazin-1-yl)-5-(trifluoromethyl)phenol]
2 | 500 to 3000 nM | Cc1c(-c2ccc(C(F)(F)F)cc2O)nnc(C(O)C2CCCN(C)C2)c1C (stereo not drawn) [Compound 1, 2-(6-(hydroxy(1-methylpiperidin-3-yl)methyl)-4,5-dimethylpyridazin-3-yl)-5-(trifluoromethyl)phenol]
3 | 500 to 3000 nM | Cc1c(C(=O)C2CCCN(C)C2)nnc(-c2ccc(C(F)(F)F)cc2O)c1C (stereo not drawn) [Compound 2, (6-(2-hydroxy-4-(trifluoromethyl)phenyl)-4,5-dimethylpyridazin-3-yl)(1-methylpiperidin-3-yl)methanone]
4 | < 500 nM | Cc1c(-c2ccc(C(F)(F)F)cc2O)nnc(C(C)(O)C2CCCN(C)C2)c1C (stereo not drawn) [Compound 3, 2-(6-(1-hydroxy-1-(1-methylpiperidin-3-yl)ethyl)-4,5-dimethylpyridazin-3-yl)-5-(trifluoromethyl)phenol]
5 | 3000 to 10000 nM | Cc1c(-c2ccc(C(F)(F)F)cc2O)nnc(C(F)c2cccnc2)c1C (stereo not drawn) [Compound 4, 2-(6-(fluoro(pyridin-3-yl)methyl)-4,5-dimethylpyridazin-3-yl)-5-(trifluoromethyl)phenol]
6 | < 500 nM | Cc1c(CC2CCCN(C)C2)nnc(-c2ccc(C(F)(F)F)cc2O)c1C (stereo not drawn) [Compound 5, 2-(4,5-dimethyl-6-((1-methylpiperidin-3-yl)methyl)pyridazin-3-yl)-5-(trifluoromethyl)phenol]
7 | 500 to 3000 nM | COC(c1nnc(-c2ccc(C(F)(F)F)cc2O)c(C)c1C)C1CCCN(C)C1 (stereo not drawn) [Compound 6, 2-(6-(methoxy(1-methylpiperidin-3-yl)methyl)-4,5-dimethylpyridazin-3-yl)-5-(trifluoromethyl)phenol]
8 | < 500 nM | Cc1cc(O)c(-c2ccc(CC3CCCN(C)C3)nn2)c(F)c1 (stereo not drawn) [Compound 7, 3-fluoro-5-methyl-2-(6-((1-methylpiperidin-3-yl)methyl)pyridazin-3-yl)phenol]
9 | < 500 nM | Cc1cc(O)c(-c2ccc(C(O)C3CCCN(C)C3)nn2)c(F)c1 (stereo not drawn) [Compound 8, 3-fluoro-2-(6-(hydroxy(1-methylpiperidin-3-yl)methyl)pyridazin-3-yl)-5-methylphenol]
10 | < 500 nM | CN1CCCC(C(O)c2nnc(-c3ccc(C(F)(F)F)cc3O)c3ccccc23)C1 (stereo not drawn) [Compound 9, 2-(4-(hydroxy(1-methylpiperidin-3-yl)methyl)phthalazin-1-yl)-5-(trifluoromethyl)phenol]
11 | 3000 to 10000 nM | Cc1cc(C(O)c2cccnc2)nnc1-c1ccc(C(F)(F)F)cc1O (stereo not drawn) [Compound 10, 2-(6-(hydroxy(pyridin-3-yl)methyl)-4-methylpyridazin-3-yl)-5-(trifluoromethyl)phenol]
12 | < 500 nM | Cc1cc(C(O)C2CCCN(C)C2)nnc1-c1ccc(C(F)(F)F)cc1O (stereo not drawn) [Compound 11, 2-(6-(hydroxy(1-methylpiperidin-3-yl)methyl)-4-methylpyridazin-3-yl)-5-(trifluoromethyl)phenol]
13 | 500 to 3000 nM | Cc1cc(-c2ccc(C(F)(F)F)cc2O)nnc1C(O)C1CCCN(C)C1 (stereo not drawn) [Compound 12, 2-(6-(hydroxy(1-methylpiperidin-3-yl)methyl)-5-methylpyridazin-3-yl)-5-(trifluoromethyl)phenol]

same assay, conditions: fresh human whole blood; compound 0.5 h, 100 ng/mL LPS 3.5 h at 37° C., 5 mM ATP 45 min; IL-1b in supernatant by ELISA

Row | IC50 | SMILES
14 | 500 to 3000 nM | CN1CCC[C@@H]([C@@H](O)c2nnc(-c3ccc(C(F)(F)F)cc3O)c3c2CCC3)C1 (racemic) [Compound 43B, 2-(4-((R/S)-hydroxy((R/S)-1-methylpiperidin-3-yl)methyl)-6,7-dihydro-5H-cyclopenta[d]pyridazin-1-yl)-5-(trifluoromethyl)phenol]
15 | < 500 nM | CN1CCC[C@@H]([C@@H](O)c2nnc(-c3ccc(C(F)(F)F)cc3O)c3c2CCC3)C1 (racemic) [Compound 44, 2-(4-((R)-hydroxy((R)-1-methylpiperidin-3-yl)methyl)-6,7-dihydro-5H-cyclopenta[d]pyridazin-1-yl)-5-(trifluoromethyl)phenol]
